Data as given in PMC11171523 (2024).

Columns and labels:
[1] = tested on: poly A–poly U (pApU, AU-RNA) (RNA, polymer) A/U; assay: UV melting at 260 nm; settings: Na+ (sodium cacodylate, I = 0.05 M); pH 7; ratio [dye]/[polynucleotide] = 0.1; error ±0.5 °C; per base
[2] = tested on: poly A–poly U (pApU, AU-RNA) (RNA, polymer) A/U; assay: fluorimetric titration, Scatchard fit; settings: Na+ (sodium cacodylate, I = 0.05 M); pH 7.0, 25 °C; dye 50 nM; n fixed at 0.2; polynucleotide as phosphate; per base
[3] = tested on: poly dAdT–poly dAdT (poly(dAdT)2, AT-DNA) (DNA, polymer) AT; assay: CD titration (induced CD); settings: Na+ (sodium cacodylate, I = 0.05 M), pH 7
[4] = tested on: poly dGdC–poly dGdC (poly(dGdC)2, GC-DNA) (DNA, polymer) GC; assay: CD titration (induced CD); settings: Na+ (sodium cacodylate, I = 0.05 M), pH 7
[5] = ratio [dye]/[polynucleotide] = 0.1 and 0.5, negative ICD at 308–324 nm

Structure (SMILES) | ΔTm [1] | log Ks [2] | binding [3, 5] | binding [4, 5] | binding ([3]; ratio [dye]/[polynucleotide] = 0.5, weaker ICD than GC-DNA) | binding ([4]; ratio [dye]/[polynucleotide] = 0.5, strong negative ICD at 325 nm)
C#CC[N+](C)(C)c1ccc(/C=C/c2cc(/C=C/c3ccc([N+](C)(C)CC#C)cc3)c(/C=C/c3ccc([N+](C)(C)CC#C)cc3)cc2/C=C/c2ccc([N+](C)(C)CC#C)cc2)cc1 | +10.4 °C | 8.9 |  |  |  | 
C#CC[N+](C)(C)c1ccc(/C=C/c2cc(/C=C/c3ccc([N+](C)(C)CC#C)cc3)cc(/C=C/c3ccc([N+](C)(C)CC#C)cc3)c2)cc1 | +18.1 °C | 8.6 |  |  |  | 
CCCC[N+](C)(CCCC)c1ccc(/C=C/c2cc(/C=C/c3ccc([N+](C)(CCCC)CCCC)cc3)c(/C=C/c3ccc([N+](C)(CCCC)CCCC)cc3)cc2/C=C/c2ccc([N+](C)(CCCC)CCCC)cc2)cc1 | 0 °C | 8.6 |  |  |  | 
CCCC[N+](C)(CCCC)c1ccc(/C=C/c2cc(/C=C/c3ccc([N+](C)(CCCC)CCCC)cc3)cc(/C=C/c3ccc([N+](C)(CCCC)CCCC)cc3)c2)cc1 | +5.1 °C | 8.9 | yes | yes |  | 
CCCC[n+]1ccc(/C=C/c2cc(/C=C/c3cc[n+](CCCC)cc3)c(/C=C/c3cc[n+](CCCC)cc3)cc2/C=C/c2cc[n+](CCCC)cc2)cc1 | +1.7 °C | 7.6 |  |  |  | 
CCCC[n+]1ccc(/C=C/c2cc(/C=C/c3cc[n+](CCCC)cc3)cc(/C=C/c3cc[n+](CCCC)cc3)c2)cc1 | +1.5 °C | 8.7 |  |  |  | 
C[N+](C)(C)c1ccc(/C=C/c2cc(/C=C/c3ccc([N+](C)(C)C)cc3)c(/C=C/c3ccc([N+](C)(C)C)cc3)cc2/C=C/c2ccc([N+](C)(C)C)cc2)cc1 | +12.5 °C | 8.6 |  |  |  | 
C[N+](C)(C)c1ccc(/C=C/c2cc(/C=C/c3ccc([N+](C)(C)C)cc3)cc(/C=C/c3ccc([N+](C)(C)C)cc3)c2)cc1 | +23.2 °C | 8.9 |  |  | yes | yes
C[n+]1ccc(/C=C/c2cc(/C=C/c3cc[n+](C)cc3)c(/C=C/c3cc[n+](C)cc3)cc2/C=C/c2cc[n+](C)cc2)cc1 | +6.4 °C | 8.2 |  |  |  | 
C[n+]1ccc(/C=C/c2cc(/C=C/c3cc[n+](C)cc3)cc(/C=C/c3cc[n+](C)cc3)c2)cc1 | +8.5 °C | 8.7 |  |  |  | 
